Measured values from US20050054696A1, “Indole compounds and medicinal use thereof” (priority 2001, published 2005).

Target: T1, recombinant human liver glycogen phosphorylase (HLGPa) (Homo sapiens, UniProt P06737)
T1 construct: made in house; host or cells: Sf9 insect cells (unpurified cell lysate used as enzyme solution)
T1 sequence (P06737 1-847): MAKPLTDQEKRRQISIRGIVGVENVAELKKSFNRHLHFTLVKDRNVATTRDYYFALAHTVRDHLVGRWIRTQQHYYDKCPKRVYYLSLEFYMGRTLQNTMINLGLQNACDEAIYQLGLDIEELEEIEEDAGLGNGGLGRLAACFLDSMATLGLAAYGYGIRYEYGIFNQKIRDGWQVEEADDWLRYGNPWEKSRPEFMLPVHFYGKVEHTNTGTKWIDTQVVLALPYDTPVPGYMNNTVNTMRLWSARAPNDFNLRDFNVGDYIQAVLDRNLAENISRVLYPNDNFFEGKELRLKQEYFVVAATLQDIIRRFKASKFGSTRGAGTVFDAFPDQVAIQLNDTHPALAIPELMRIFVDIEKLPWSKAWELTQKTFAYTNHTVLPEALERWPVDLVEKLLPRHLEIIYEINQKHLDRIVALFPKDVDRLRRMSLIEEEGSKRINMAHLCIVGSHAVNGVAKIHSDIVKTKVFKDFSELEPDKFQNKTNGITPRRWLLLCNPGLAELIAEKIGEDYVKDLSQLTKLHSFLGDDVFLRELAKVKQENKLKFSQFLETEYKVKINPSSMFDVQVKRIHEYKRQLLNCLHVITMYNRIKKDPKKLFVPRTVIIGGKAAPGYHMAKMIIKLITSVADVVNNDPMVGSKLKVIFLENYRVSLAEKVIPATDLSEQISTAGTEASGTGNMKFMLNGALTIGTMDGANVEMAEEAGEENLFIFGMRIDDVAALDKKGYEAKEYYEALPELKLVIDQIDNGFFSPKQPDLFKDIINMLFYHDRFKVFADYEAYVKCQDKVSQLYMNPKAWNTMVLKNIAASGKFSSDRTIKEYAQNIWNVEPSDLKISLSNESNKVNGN
Assay: Measurement of liver glycogen phosphorylase activity (enzyme inhibitory activity against HLGPa)
Assay type: biochemical
Conditions: Sf9 cell lysate expressing recombinant enzyme; reverse reaction (glycogen synthesis from G1-P), phosphate by malachite green, 60 min room temperature
Protocol: Measurement Method of Liver Glycogen Phosphorylase Activity
The measurement of the glycogen phosphorylase activity was performed by measuring the concentration of phosphoric acic produced by a reverse reaction, that is, a reaction wherein the glycogen phosphorylase synthesizes glycogen from G1-P. A cell lysate of Sf9 cells that forcibly expressed recombinant human liver glycogen phosphorylase was diluted to a protein amount of 80 μg/mL with 1 mM imidazole-hydrochloric acid buffer (pH 7.0, containing 0.2 mM PMSF, 250 mM NaCl, 0.025% BSA) and the dilute cell lysate was used as an enzyme solution of human liver glycogen phosphorylase. As a substrate solution, 25 mM Tris-HCl buffer (pH 7.2, containing 250 mM KCl, 6.25 mM MgCl2, 6.25 mM EGTA, 1.25 mM glucose-1-phosphate, 2.5 mg/ml glycogen, 7.5 mM glucose) was used. The test drug was dissolved in 0.5% dimethyl sulfoxide (DMSO). To a mixture of the test drug (10 μl) and the substrate solution (20 μl) was added an enzyme solution (20 μl) to start the enzyme reaction. As a control, 0.5% DMSO was added instead of the test drug. One free of addition of enzyme was used as a blank. The mixture was reacted at room temperature for 60 min, and a malachite green solution (50 μl) was added. The mixture was further reacted at room temperature for 20 min and absorbance at 650 nm was measured. An enzyme solution was added to the blank simultaneously with the malachite green solution and the measurement was done in the same manner. The percent inhibition (%) of the test drug was calculated from ((value of control−value of the test drug)/(value of control−value of blank))×100 (%).

| Structure (SMILES) | IC50 [nM] |
| --- | --- |
| O=C(NNC(=O)c1cc2cc(Cl)ccc2[nH]1)Nc1ccccc1Cl [Example 5-9, 5-chloro-1H-indole-2-carboxylic acid 2-((2-chloroanilino)carbonyl)hydrazide] | > 100 |
| CCc1ccc2[nH]c(C(=O)NNC(=O)c3ccccc3N)cc2c1 [Example 1-66, 2-aminobenzoic acid 2-(5-ethyl-1H-indole-2-carbonyl)hydrazide] | > 100 |
| CNc1ccccc1C(=O)NNC(=O)c1cc2cc(Cl)ccc2[nH]1 [Example 1-53, 2-methylaminobenzoic acid 2-(5-chloro-1H-indole-2-carbonyl)hydrazide] | 230 |
| O=C(Nc1ccccc1C(=O)NNC(=O)c1cc2cc(Cl)ccc2[nH]1)Oc1ccccc1 [Example 1-109, phenyl (2-(2-(5-chloro-1H-indole-2-carbonyl)hydrazinocarbonyl)phenyl)carbamate] | 140 |
| N#Cc1ccc(C(=O)NNC(=O)c2cc3cc(Cl)ccc3[nH]2)cc1 [Example 1-58, 4-cyanobenzoic acid 2-(5-chloro-1H-indole-2-carbonyl)hydrazide] | > 100 |
| Cc1ccc2[nH]c(C(=O)NNC(=O)c3ccccc3N)cc2c1 [Example 6-28, 2-aminobenzoic acid 2-(5-methyl-1H-indole-2-carbonyl)hydrazide p-toluenesulfonate] | 250 |
| O=C(NNC(=O)c1cc2ccc(Cl)cc2[nH]1)c1ccccc1 [Example 1-124, benzoic acid 2-(6-chloro-1H-indole-2-carbonyl)hydrazide] | > 100 |
| COC(=O)COc1cccc(C(=O)NNC(=O)c2cc3cc(Cl)ccc3[nH]2)c1 [Example 1-69, 2-(3-(2-(5-chloro-1H-indole-2-carbonyl)hydrazinocarbonyl)phenoxy)acetic acid methyl ester] | 150 |
| N=C(NNC(=O)c1cc2cc(Cl)ccc2[nH]1)c1c(F)cccc1F [Example 6-25, 5-chloro-1H-indole-2-carboxylic acid 2-((2,6-difluorophenyl)-imino-methyl)hydrazide methanesulfonate] | 330 |
| O=C(NNC(=O)c1ccccc1OCCO)c1cc2cc(Cl)ccc2[nH]1 [Example 1-68, 2-(2-hydroxyethoxy)benzoic acid 2-(5-chloro-1H-indole-2-carbonyl)hydrazide] | 160 |
| O=C(NN1C(=O)CNC1=O)c1cc2cc(Cl)ccc2[nH]1 [Example 4-11, 5-chloro-1H-indole-2-carboxylic acid (2,4-dioxoimidazolidin-3-yl)amide] | > 100 |
| Nc1cnccc1C(=O)NNC(=O)c1cc2cc(Cl)ccc2[nH]1 [Example 1-41, 3-aminoisonicotinic acid 2-(5-chloro-1H-indole-2-carbonyl)hydrazide] | 310 |
| O=C(NNC(=O)c1cc2cc(Cl)ccc2[nH]1)Nc1cccc(Cl)c1 [Example 5-10, 5-chloro-1H-indole-2-carboxylic acid 2-((3-chloroanilino)carbonyl)hydrazide] | > 100 |
| CC(C)c1ccc2[nH]c(C(=O)Nn3c(=O)[nH]c4ccccc4c3=O)cc2c1 [Example 2-9, 5-isopropyl-1H-indole-2-carboxylic acid (1,2,3,4-tetrahydro-2,4-dioxoquinazolin-3-yl)amide] | > 100 |
| N=C(NNC(=O)c1cc2cc(Cl)ccc2[nH]1)c1ccco1 [Example 1-137, 5-chloro-1H-indole-2-carboxylic acid 2-((furan-2-yl)-imino-methyl)hydrazide] | 330 |
| CC(=O)N[C@H](C(=O)NNC(=O)c1cc2cc(Cl)ccc2[nH]1)c1ccccc1 (stereo in doubt) [Example 5-19, N-(2-(2-(5-chloro-1H-indole-2-carbonyl)hydrazino)-2-oxo-1-phenylethyl)acetamide] | 360 |
| Nc1ccccc1C(=O)NNC(=O)c1cc2cc(Br)ccc2[nH]1 [Example 1-102, 2-aminobenzoic acid 2-(5-bromo-1H-indole-2-carbonyl)hydrazide] | > 100 |
| Nc1ccccc1C(=O)NNC(=O)c1cc2cc(F)ccc2[nH]1 [Example 1-38, 2-aminobenzoic acid 2-(5-fluoro-1H-indole-2-carbonyl)hydrazide] | > 100 |
| O=C(NNC(=O)c1cc2cc(Cl)ccc2[nH]1)c1cccc(-c2nnn[nH]2)c1 [Example 1-60, 3-(1H-tetrazol-5-yl)benzoic acid 2-(5-chloro-1H-indole-2-carbonyl)hydrazide] | > 100 |
| N=C(NNC(=O)c1cc2cc(Cl)ccc2[nH]1)c1c(F)cccc1Cl [Example 1-138, 5-chloro-1H-indole-2-carboxylic acid 2-((2-chloro-6-fluorophenyl)-imino-methyl)hydrazide] | 460 |
| O=C(NN1C(=O)CCN(c2ccccn2)C1=O)c1cc2cc(Cl)ccc2[nH]1 [Example 3-6, 5-chloro-1H-indole-2-carboxylic acid (2,4-dioxo-1-(pyridin-2-yl)perhydropyrimidin-3-yl)amide] | 190 |

The remaining compounds from weak to strong by IC50, led by results:

| IC50 [nM] | Structure (SMILES) |
| --- | --- |
| 140 | O=C(NNC(=O)c1c(Cl)cccc1Cl)c1cc2cc(Cl)ccc2[nH]1 [Example 1-25, 2,6-dichlorobenzoic acid 2-(5-chloro-1H-indole-2-carbonyl)hydrazide] |
| 120 | COc1ccccc1C(=O)NNC(=O)c1cc2cc(Cl)ccc2[nH]1 [Example 1-15, 2-methoxybenzoic acid 2-(5-chloro-1H-indole-2-carbonyl)hydrazide] |
| 110 | Nc1ccc2[nH]c(=O)n(NC(=O)c3cc4cc(Cl)ccc4[nH]3)c(=O)c2c1 [Example 2-16, 5-chloro-1H-indole-2-carboxylic acid (6-amino-1,2,3,4-tetrahydro-2,4-dioxoquinazolin-3-yl)amide] |
| 99 | Cc1cccc(C(=O)NNC(=O)c2cc3cc(Cl)ccc3[nH]2)c1 [Example 1-18, 3-methylbenzoic acid 2-(5-chloro-1H-indole-2-carbonyl)hydrazide] |
| 95 | O=C(NNC(=O)c1cc2cc(Cl)ccc2[nH]1)c1cccnc1 [Example 1-43, nicotinic acid 2-(5-chloro-1H-indole-2-carbonyl)hydrazide] |
| 76 | O=C(NNC(=O)c1cc2cc(Cl)ccc2[nH]1)c1ccc(-c2ncn[nH]2)cc1 [Example 1-73, 4-(2H-[1,2,4]triazol-3-yl)benzoic acid 2-(5-chloro-1H-indole-2-carbonyl)hydrazide] |
| 73 | O=C(NNC(=O)c1cc2cc(F)ccc2[nH]1)c1ccccc1 [Example 1-9, benzoic acid 2-(5-fluoro-1H-indole-2-carbonyl)hydrazide] |
| 54 | Cc1ccc2[nH]c(C(=O)NNC(=O)c3cc(F)c(F)cc3N)cc2c1 [Example 1-67, 2-Amino-4,5-difluorobenzoic acid 2-(5-methyl-1H-indole-2-carbonyl)hydrazide] |
| 41 | CN(NC(=O)c1cc2cc(Cl)ccc2[nH]1)C(=O)C1CCCCC1 [Example 1-116, cyclohexanecarboxylic acid 2-(5-chloro-1H-indole-2-carbonyl)-1-methylhydrazide] |
| 31 | COC(=O)Cn1c(=O)n(NC(=O)c2cc3cc(Cl)ccc3[nH]2)c(=O)c2ccccc21 [Example 2-22, 2-(3-((5-chloro-1H-indole-2-carbonyl)amino)-1,2,3,4-tetrahydro-2,4-dioxoquinazolin-1-yl)acetic acid methyl ester] |
| 20 | O=C(NNC(=O)c1cc2cc(Cl)ccc2[nH]1)c1ccoc1 [Example 1-84, furan-3-carboxylic acid 2-(5-chloro-1H-indole-2-carbonyl)hydrazide] |
| 16 | O=C(Nn1c(=O)[nH]c2ccccc2c1=O)c1cc2cc(Cl)ccc2[nH]1 [Example 2, N-(1,2,3,4-tetrahydro-2,4-dioxoquinazolin-3-yl)-5-chloro-1H-indole-2-carboxamide] |
